According to ChEMBL document CHEMBL1201862, “PubChem BioAssay data set” (2004):
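Method: 48-hour compound exposure of cells in 96-well plates, five concentrations, linear interpolation of endpoints. Here, GI50 denotes the concentration required for 50% inhibition of growth.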 Activity calls are given as the source filed them. No stated cut-off is given here; in the data, active = GI50 up to about 1.1 µM and inactive = higher. Where a SMILES comes first, the peptide text is derived from it. [ ]: non-standard residue; d: D form. The star is where a group is joined. NMeF = CN[CH](Cc1ccccc1)C(=O)O; NMeV = CN[CH](C(=O)O)C(C)C; Boc = CC(C)(C)OC(=O)*; OBn = c1ccc(CO*)cc1

Key:
Test in all cases: growth of human tumour cells (NCI), 48 h
[1] = tested on: ACHN
[2] = tested on: HL-60
[3] = tested on: NCI-H23
[4] = tested on: OVCAR-4
[5] = tested on: CCRF-CEM
[6] = tested on: HOP-62
[7] = tested on: UACC-257
[8] = tested on: SF-295
[9] = tested on: UACC-62
[10] = tested on: HOP-92
[11] = tested on: SF-539
[12] = tested on: OVCAR-8
[13] = tested on: SNB-75
[14] = tested on: KM12
[15] = tested on: SNB-19
[16] = tested on: NCI-H226

Measured: GI50

N=C(N)NS(=O)(=O)c1ccc(NC(=O)c2ccc(Cl)c3c(Nc4ccc(S(=O)(=O)N=C(N)N)cc4)c4ccccc4nc23)cc1
inactive: [1] 95.5 µM | [2] 41.3 µM | [3] > 100 µM | [4] > 100 µM | [5] 43.1 µM | [6] 53.2 µM | [7] 84.5 µM | [8] > 100 µM | [9] 37.5 µM | [10] 28.2 µM | [11] 53.7 µM | [12] > 100 µM | [13] 24.5 µM | [14] 24.5 µM | [15] 53.3 µM

c1ccc(CNn2nnc3ccccc32)cc1
inactive: [1] > 100 µM | [2] > 100 µM | [3] > 100 µM | [4] > 100 µM | [5] > 100 µM | [6] > 100 µM | [7] > 100 µM | [8] > 100 µM | [9] > 100 µM | [10] > 100 µM | [12] > 100 µM | [13] > 100 µM | [14] > 100 µM | [15] > 100 µM

NC1=NS(=O)(=O)Nc2nc(-c3ccc(Cl)cc3)[nH]c21
inactive: [1] > 100 µM | [2] > 100 µM | [3] > 100 µM | [4] > 100 µM | [5] > 100 µM | [6] > 100 µM | [8] > 100 µM | [9] > 100 µM | [10] 88.1 µM | [11] > 100 µM | [12] > 100 µM | [13] 62.7 µM | [14] > 100 µM | [15] > 100 µM

[O-][n+]1c2c([n+]([O-])c3ccccc31)CCCCCCCCCC2
inactive: [1] > 100 µM | [2] 44.1 µM | [3] > 100 µM | [5] 85.7 µM | [7] 67.8 µM | [8] > 100 µM | [9] > 100 µM | [10] 67.8 µM | [11] > 100 µM | [13] > 100 µM | [14] > 100 µM | [15] > 100 µM | [16] 14.2 µM

Cc1cn(C2OC(C)(CO)C(O)C2O)c(=O)[nH]c1=O (stereo not drawn)
inactive: [1] > 100 µM | [2] > 10 µM | [3] > 100 µM | [4] > 100 µM | [5] > 100 µM | [6] > 100 µM | [8] > 100 µM | [9] > 100 µM | [10] > 100 µM | [11] > 100 µM | [12] > 100 µM | [13] > 100 µM | [14] > 100 µM | [15] > 100 µM

O=P1(Oc2ccccc2)C(c2ccccc2)C(c2ccccc2)=NN1c1ccccc1 (stereo not drawn)
inactive: [1] 24.5 µM | [2] 15.8 µM | [3] 22.8 µM | [4] 31.6 µM | [5] 30.4 µM | [6] 24.6 µM | [7] 27.9 µM | [8] 28.2 µM | [9] 18.2 µM | [11] 18.4 µM | [12] 37 µM | [13] 30 µM | [14] 25.8 µM | [15] 34.9 µM | [16] 23.5 µM

O=C(O)c1ccc(C2C3C=CC(C3)C2[N+](=O)[O-])cc1 (stereo not drawn)
inactive: [2] > 100 µM | [3] > 100 µM | [5] > 100 µM | [6] > 100 µM | [7] > 100 µM | [8] > 100 µM | [9] > 100 µM | [11] > 100 µM | [12] > 100 µM | [13] 91.2 µM | [14] > 100 µM | [15] > 100 µM | [16] > 100 µM

Cc1c(C)c([N+](=O)[O-])c2c(c1N)C(=O)c1ccccc1C2=O
inactive: [1] > 100 µM | [2] > 100 µM | [3] > 100 µM | [5] > 100 µM | [6] > 100 µM | [7] > 100 µM | [8] > 100 µM | [9] > 100 µM | [10] > 100 µM | [11] > 100 µM | [12] > 100 µM | [13] > 100 µM | [14] > 100 µM | [15] > 100 µM | [16] > 100 µM

CC(=O)O[C@]12CCCC1C1(O)C(O)CCCC12 (stereo partly drawn)
inactive: [1] > 100 µM | [2] > 100 µM | [3] > 100 µM | [4] > 100 µM | [5] > 100 µM | [6] > 100 µM | [7] > 100 µM | [8] > 100 µM | [9] > 100 µM | [12] > 100 µM | [13] > 100 µM | [14] > 100 µM | [15] > 100 µM | [16] > 100 µM

O=C1C2c3[nH]c4ccccc4c3C3CCCCC3C2C(=O)N1c1ccccc1 (stereo not drawn)
inactive: [1] 99.3 µM | [2] > 100 µM | [3] > 100 µM | [4] 45.1 µM | [5] 85.1 µM | [8] 48.9 µM | [9] > 100 µM | [11] 34 µM | [12] > 100 µM | [13] 11.3 µM | [14] > 100 µM | [15] 84.1 µM | [16] > 100 µM

Clc1cc(Cl)c2n[se]nc2c1
inactive: [1] > 100 µM | [2] > 100 µM | [3] > 100 µM | [4] > 100 µM | [5] > 100 µM | [6] > 100 µM | [7] > 100 µM | [8] > 100 µM | [9] > 100 µM | [11] > 100 µM | [12] > 100 µM | [13] 60.1 µM | [14] > 100 µM | [15] > 100 µM

Cc1nc(-c2cccnc2)sc1C(=O)/C=C/c1ccc(Cl)cc1Cl
inactive: [1] > 100 µM | [2] 51.3 µM | [3] > 100 µM | [5] 47.5 µM | [6] > 100 µM | [7] > 100 µM | [8] > 100 µM | [9] 83.9 µM | [10] > 100 µM | [11] > 100 µM | [12] > 100 µM | [13] 92.9 µM | [14] > 100 µM | [16] > 100 µM

O=c1ncccn1C1OC(CO)C(O)C1O (stereo not drawn)
inactive: [1] > 100 µM | [3] > 100 µM | [4] > 100 µM | [5] > 100 µM | [7] > 10 µM | [9] > 100 µM | [10] > 100 µM | [12] > 100 µM | [13] > 100 µM | [14] > 100 µM | [15] 91.8 µM | [16] > 100 µM

CC(C)C(NC(=O)OC(C)(C)C)C(=O)N(C)C(Cc1ccccc1)C(=O)N(C)C(C(=O)N(C)C(C(=O)OCc1ccccc1)C(C)C)C(C)C (stereo not drawn) (Boc-V[NMeF][NMeV][NMeV]-OBn; configuration not given here)
inactive: [1] 26.4 µM | [2] > 100 µM | [3] > 100 µM | [5] 48.5 µM | [6] > 100 µM | [7] 39.6 µM | [8] 51.2 µM | [9] > 100 µM | [11] > 100 µM | [12] > 100 µM | [14] > 100 µM | [15] > 100 µM | [16] > 100 µM
